Values quoted from earlier work, collected in patent US12186420B2, “Compositions and methods of use for treatment or improvement of the condition and appearance of skin” (Quthero, Inc., priority 2020, dated 2025).

Test system: keratinocyte
Settings: in the presence of reactive oxygen species

Substance: QHREDGS [angiopoietin-1 derived peptide]
- keratinocyte death: reduce keratinocyte death
